Experimental data from patent US20230248702A1, “MICELLE COMPRISING BENZIMIDAZOLE-CARBOHYDRATE CONJUGATE COMPOUND, PREPARATION METHOD THEREOF AND USE THEREOF AS ANTICANCER AGENT OR ANTIVIRAL AGENT COMPRISING THE SAME” (BIOMETRIX TECHNOLOGY INC., priority 2021, published 2023).

Experiments:
[1] = test system: cancer cell lines (pancreatic cancer cell line ASPC-1, lung cancer cell line A549, breast cancer cell line MCF-7, colorectal cancer cell line HCT 116); experiment: Test for inhibition of growth of cancer cell lines (WST-8 cell viability assay); type: cell-based, humans
Experimental: Pancreatic cancer cell lines ASPC-1, lung cancer cell lines A549, breast cancer cell lines MCF-7, and colorectal cancer cell lines HCT 116 of humans were distributed by Korean Cell Line Bank (KCLB, Seoul in Korea) and grown using culture media. Fetal bovine serum (FBS), 0.1 mM MEM nonessential amino acid (NEAA), 2 mM L-glutamine, and 1 % of penicillin-streptomycin were treated with trypsin every two-three days in a humidified cell culture incubator containing 5 % of CO2 at 37° C. by using DMEM and a 10 % culture flask according to guidelines provided by the KCLB, to subculture cells. […] After 24 hours, each of the nine sorts of compounds in table 2 was added to the well under six concentration conditions and was incubated for 24 hours. After the incubation, the culture medium was thrown away, and cell viability in each well was measured according to an instruction of the manufacturer, using a WST-8 cell viability assay kit (Quanti-MaxTM, BIOMAX). The analysis used the principle that the dehydrogenase of living cells decomposes tetrazolium salt to generate formazan, and based on this, the living cells were quantitatively evaluated. Reduced formazan dye (formazan salt) is soluble in the cell culture medium, and the amount of formazan (formazan) was measured using the direct proportionality to the number of viable cells.

[2] = test system: normal lung cell lines MRC-5; experiment: Test for toxicity on normal cell lines (WST-8 cell viability assay); type: cell-based; settings: rating relative to doxorubicin, 0-50 µM, incubated for 24 hours
Experimental: Normal lung cell lines MRC-5 were distributed by Korean Cell Line Bank (KCLB, Seoul in Korea) and grown using a complete culture medium. Fetal bovine serum (FBS), 0.1 mM MEM nonessential amino acid (NEAA), 2 mM L-glutamine, and 1 % of penicillin-streptomycin were treated with trypsin every two-three days in a humidified cell culture incubator containing 5 % of CO2 at 37° C. by using DMEM and a 10 % culture flask according to guidelines provided by the KCLB, to subculture cells. The culture was incubated until it reached 80-90 % confluence, and the cells continuously moved to the culture flask for a test of inhibition of growth of cancer cell lines.
The normal cell lines (MRC-5) were seeded in 96-well plates at about 7,000 cells per well. […]
After the incubation, the culture medium was thrown away, and cell viability in each well was measured according to an instruction of the manufacturer, using a WST-8 cell viability assay kit (Quanti-MaxTM, BIOMAX).
The analysis used the principle that the dehydrogenase of living cells decomposes tetrazolium salt to generate formazan, and based on this, the living cells were quantitatively evaluated. Reduced formazan dye (formazan salt) is soluble in the cell culture medium, and the amount of formazan (formazan) was measured using the direct proportionality to the number of viable cells.

Compound | total number of cancer cells remained within 24 hours ([1]; concentrations of Table 2 (0-50 µM), 24 hours) [%] | Test for inhibition of growth of cancer cell line ([1]; rating relative to doxorubicin, 0-50 µM, incubated for 24 hours) | Test for toxicity on normal cell line [2]
COc1cccc2c1C(=O)c1c(O)c3c(c(O)c1C2=O)C[C@@](O)(C(=O)CO)C[C@@H]3O[C@H]1C[C@H](N)[C@H](O)[C@H](C)O1 [doxorubicin, reference compound] | ≥ 70 |  | 
CCCSc1ccc2nc(NC3O[C@H](CO)[C@@H](O)[C@H](O)[C@H]3O)[nH]c2c1 (stereo partly drawn) [Albendazole-glucose conjugate (Al-G), 6-(propylthio)-1H-benzoimidazol-2-aminoglucose] |  | C (a C rating denotes a very weak quality (10 times or more)) | AAA (an AAA rating denotes no toxicity (1/30 times or less))
